Reference: ChEMBL document CHEMBL5724914, “Linking interpersonal differences in gut microbiota composition and drug biotransformation activity” (2024)

assay: (§1) The drug is tested on Z-016 corresponding to mouse gut metagenome with ENA study accession number: PRJEB37062 and ENA sample accession number: ERS12561815 for biotransformation under anaerobic condition. The drug concentrations were measured over 9 timepoints collected between 0 and 24 hours of incubation by liquid-chromatography-coupled mass spectrometry (LC–MS); settings: 2 µM
Note: call rule not given here.

Row | Compound | Bacterial Biotransformation
1 | Cc1ccccc1C(OCCN(C)C)c1ccccc1.O=C(O)CC(O)(CC(=O)O)C(=O)O (stereo not given) [ORPHENADRINE CITRATE] | Compound metabolized
2 | CC(=O)CCCCn1c(=O)c2c(ncn2C)n(C)c1=O [PENTOXIFYLLINE] | Compound NOT metabolized

assay: as §1, with “Z-027” for “Z-016”, “to” for “to mouse gut”, “ERS12561826” for “ERS12561815”; settings: 2 µM

Row | Compound | Bacterial Biotransformation
3 | Cc1ccccc1C(OCCN(C)C)c1ccccc1.O=C(O)CC(O)(CC(=O)O)C(=O)O (stereo not given) [ORPHENADRINE CITRATE] | Compound NOT metabolized
4 | CC(=O)CCCCn1c(=O)c2c(ncn2C)n(C)c1=O [PENTOXIFYLLINE] | Compound NOT metabolized

assay: as §1, with “Z-011” for “Z-016”, “ERS12561811” for “ERS12561815”; settings: 2 µM

Row | Compound | Bacterial Biotransformation
5 | Cc1ccccc1C(OCCN(C)C)c1ccccc1.O=C(O)CC(O)(CC(=O)O)C(=O)O (stereo not given) [ORPHENADRINE CITRATE] | Compound NOT metabolized
6 | CC(=O)CCCCn1c(=O)c2c(ncn2C)n(C)c1=O [PENTOXIFYLLINE] | Compound NOT metabolized

assay: as §1, with “Z-024” for “Z-016”, “pig” for “mouse”, “ERS12561823” for “ERS12561815”; settings: 2 µM

Row | Compound | Bacterial Biotransformation
7 | Cc1ccccc1C(OCCN(C)C)c1ccccc1.O=C(O)CC(O)(CC(=O)O)C(=O)O (stereo not given) [ORPHENADRINE CITRATE] | Compound metabolized
8 | CC(=O)CCCCn1c(=O)c2c(ncn2C)n(C)c1=O [PENTOXIFYLLINE] | Compound NOT metabolized

settings: human gut metagenome, 24 h, 2 µM

Row | Compound | Bacterial Biotransformation
9 | Cc1ccccc1C(OCCN(C)C)c1ccccc1.O=C(O)CC(O)(CC(=O)O)C(=O)O (stereo not given) [ORPHENADRINE CITRATE] | Compound NOT metabolized
10 | CC(=O)CCCCn1c(=O)c2c(ncn2C)n(C)c1=O [PENTOXIFYLLINE] | Compound NOT metabolized

settings: human gut metagenome, 24 h, 2 µM; remark: another data set of the same source

Row | Compound | Bacterial Biotransformation
11 | Cc1ccccc1C(OCCN(C)C)c1ccccc1.O=C(O)CC(O)(CC(=O)O)C(=O)O (stereo not given) [ORPHENADRINE CITRATE] | Compound metabolized
12 | CC(=O)CCCCn1c(=O)c2c(ncn2C)n(C)c1=O [PENTOXIFYLLINE] | Compound metabolized

settings: human gut metagenome, 24 h, 2 µM; remark: another data set of the same source

Row | Compound | Bacterial Biotransformation
13 | Cc1ccccc1C(OCCN(C)C)c1ccccc1.O=C(O)CC(O)(CC(=O)O)C(=O)O (stereo not given) [ORPHENADRINE CITRATE] | Compound metabolized
14 | CC(=O)CCCCn1c(=O)c2c(ncn2C)n(C)c1=O [PENTOXIFYLLINE] | Compound NOT metabolized

assay: as §1, with “WLS-240” for “Z-016”, “human” for “mouse”, “ERS12561773” for “ERS12561815”; settings: 2 µM

Row | Compound | Bacterial Biotransformation
15 | Cc1ccccc1C(OCCN(C)C)c1ccccc1.O=C(O)CC(O)(CC(=O)O)C(=O)O (stereo not given) [ORPHENADRINE CITRATE] | Compound NOT metabolized
16 | CC(=O)CCCCn1c(=O)c2c(ncn2C)n(C)c1=O [PENTOXIFYLLINE] | Compound metabolized

settings: human gut metagenome, 24 h, 2 µM; remark: another data set of the same source

Row | Compound | Bacterial Biotransformation
17 | Cc1ccccc1C(OCCN(C)C)c1ccccc1.O=C(O)CC(O)(CC(=O)O)C(=O)O (stereo not given) [ORPHENADRINE CITRATE] | Compound NOT metabolized
18 | CC(=O)CCCCn1c(=O)c2c(ncn2C)n(C)c1=O [PENTOXIFYLLINE] | Compound NOT metabolized

settings: human gut metagenome, 24 h, 2 µM; remark: another data set of the same source

Row | Compound | Bacterial Biotransformation
19 | Cc1ccccc1C(OCCN(C)C)c1ccccc1.O=C(O)CC(O)(CC(=O)O)C(=O)O (stereo not given) [ORPHENADRINE CITRATE] | Compound NOT metabolized
20 | CC(=O)CCCCn1c(=O)c2c(ncn2C)n(C)c1=O [PENTOXIFYLLINE] | Compound NOT metabolized

settings: human gut metagenome, 24 h, 2 µM; remark: another data set of the same source

Row | Compound | Bacterial Biotransformation
21 | Cc1ccccc1C(OCCN(C)C)c1ccccc1.O=C(O)CC(O)(CC(=O)O)C(=O)O (stereo not given) [ORPHENADRINE CITRATE] | Compound metabolized
22 | CC(=O)CCCCn1c(=O)c2c(ncn2C)n(C)c1=O [PENTOXIFYLLINE] | Compound NOT metabolized

assay: as §1, with “WLS-098” for “Z-016”, “human” for “mouse”, “ERS12561754” for “ERS12561815”; settings: 2 µM

Row | Compound | Bacterial Biotransformation
23 | Cc1ccccc1C(OCCN(C)C)c1ccccc1.O=C(O)CC(O)(CC(=O)O)C(=O)O (stereo not given) [ORPHENADRINE CITRATE] | Compound NOT metabolized
24 | CC(=O)CCCCn1c(=O)c2c(ncn2C)n(C)c1=O [PENTOXIFYLLINE] | Compound metabolized

assay: as §1, with “WLS-038” for “Z-016”, “human” for “mouse”, “ERS12561745” for “ERS12561815”; settings: 2 µM

Row | Compound | Bacterial Biotransformation
25 | Cc1ccccc1C(OCCN(C)C)c1ccccc1.O=C(O)CC(O)(CC(=O)O)C(=O)O (stereo not given) [ORPHENADRINE CITRATE] | Compound NOT metabolized
26 | CC(=O)CCCCn1c(=O)c2c(ncn2C)n(C)c1=O [PENTOXIFYLLINE] | Compound NOT metabolized

assay: as §1, with “WLS-069” for “Z-016”, “human” for “mouse”, “ERS12561748” for “ERS12561815”; settings: 2 µM

Row | Compound | Bacterial Biotransformation
27 | Cc1ccccc1C(OCCN(C)C)c1ccccc1.O=C(O)CC(O)(CC(=O)O)C(=O)O (stereo not given) [ORPHENADRINE CITRATE] | Compound NOT metabolized
28 | CC(=O)CCCCn1c(=O)c2c(ncn2C)n(C)c1=O [PENTOXIFYLLINE] | Compound NOT metabolized

settings: human gut metagenome, 24 h, 2 µM; remark: another data set of the same source

Row | Compound | Bacterial Biotransformation
29 | Cc1ccccc1C(OCCN(C)C)c1ccccc1.O=C(O)CC(O)(CC(=O)O)C(=O)O (stereo not given) [ORPHENADRINE CITRATE] | Compound NOT metabolized
30 | CC(=O)CCCCn1c(=O)c2c(ncn2C)n(C)c1=O [PENTOXIFYLLINE] | Compound NOT metabolized

assay: as §1, with “Z-029” for “Z-016”, “rat” for “mouse”, “ERS12561828” for “ERS12561815”; settings: 2 µM

Row | Compound | Bacterial Biotransformation
31 | Cc1ccccc1C(OCCN(C)C)c1ccccc1.O=C(O)CC(O)(CC(=O)O)C(=O)O (stereo not given) [ORPHENADRINE CITRATE] | Compound NOT metabolized
32 | CC(=O)CCCCn1c(=O)c2c(ncn2C)n(C)c1=O [PENTOXIFYLLINE] | Compound NOT metabolized

settings: human gut metagenome, 24 h, 2 µM; remark: another data set of the same source

Row | Compound | Bacterial Biotransformation
33 | Cc1ccccc1C(OCCN(C)C)c1ccccc1.O=C(O)CC(O)(CC(=O)O)C(=O)O (stereo not given) [ORPHENADRINE CITRATE] | Compound NOT metabolized
34 | CC(=O)CCCCn1c(=O)c2c(ncn2C)n(C)c1=O [PENTOXIFYLLINE] | Compound NOT metabolized

assay: as §1, with “Z-012” for “Z-016”, “to” for “to mouse gut”, “ERS12561812” for “ERS12561815”; settings: 2 µM

Row | Compound | Bacterial Biotransformation
35 | Cc1ccccc1C(OCCN(C)C)c1ccccc1.O=C(O)CC(O)(CC(=O)O)C(=O)O (stereo not given) [ORPHENADRINE CITRATE] | Compound NOT metabolized
36 | CC(=O)CCCCn1c(=O)c2c(ncn2C)n(C)c1=O [PENTOXIFYLLINE] | Compound NOT metabolized

assay: as §1, with “Z-002” for “Z-016”, “rabbit” for “mouse”, “ERS12561802” for “ERS12561815”; settings: 2 µM

Row | Compound | Bacterial Biotransformation
37 | Cc1ccccc1C(OCCN(C)C)c1ccccc1.O=C(O)CC(O)(CC(=O)O)C(=O)O (stereo not given) [ORPHENADRINE CITRATE] | Compound metabolized
38 | CC(=O)CCCCn1c(=O)c2c(ncn2C)n(C)c1=O [PENTOXIFYLLINE] | Compound NOT metabolized

settings: human gut metagenome, 24 h, 2 µM; remark: another data set of the same source

Row | Compound | Bacterial Biotransformation
39 | Cc1ccccc1C(OCCN(C)C)c1ccccc1.O=C(O)CC(O)(CC(=O)O)C(=O)O (stereo not given) [ORPHENADRINE CITRATE] | Compound NOT metabolized
40 | CC(=O)CCCCn1c(=O)c2c(ncn2C)n(C)c1=O [PENTOXIFYLLINE] | Compound NOT metabolized
